Source: US10869931B2, “Polyethylene glycol-modified angiogenesis inhibitor HM-1 and application thereof” (NANJING ANJI BIOLOGICAL TECHNOLOGY CO.,LTD, priority 2016, dated 2020)
Where no end group is shown, it is not given here.

How the values were obtained:
[1] = system: Hemangioma tumor cells; assay: MTT proliferation inhibition, hemangioma cells; assay type: cell-based, human; parameters: concentration or dose not given beside the values; conditions: 48 h
Procedure, shortened: (§1)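 Tumour cells plated at 2×10^4 cells/mL, attached overnight, then exposed to dilutions of mPEG-HM-1 for 48 h at 37 °C, 5% CO2. MTT added 4 h, formazan dissolved in DMSO, absorbance 570/630 nm; growth inhibition = 1 − treated/untreated, three independent repeats, mean±SD.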

[2] = system: adjuvant arthritis (AA) SD rats; assay: Adjuvant arthritis (AA) rat model; assay type: in vivo; conditions: for Joint swelling / Left and right paw swelling / Clinical score: AA SD rats; for Clinical score: maximum score 16
[3] = system: Pancreatic cancer tumor cells; assay: MTT proliferation inhibition, pancreatic cancer cells; assay type: cell-based, human; parameters: concentration or dose not given beside the values; conditions: 48 h
Procedure, shortened: as §1

[4] = system: choroidal neovascularization in BN rats; assay: Laser-induced choroidal neovascularization in BN rats (FFA); assay type: in vivo, rat
Method: 6-8 weeks old male BN rats were anesthetized with 846 compound anesthetic 0.5 mL/kg administered intraperitoneally. The eye drops of compound tropamide eyes were used 5 minutes before laser photocoagulation, and the pupils of both eyes were fully scattered. Fix animals, with the aid of −53.00 D contact lens, around the optic disc and along the same distance from the optic disc 2PD, the laser beam photocoagulation were performed to make a total of 8 photo-condensation spots, with laser wavelength of 647.1 nm, power of 350 mW, photocoagulation spot diameter and time were 50 μm and 0.05 s, respectively. Immediately after photocoagulation, fundus photography was performed. FFA, histopathology and transmission electron microscopy were performed at 3, 7, 14, 21, and 28 days after photocoagulation.
It was confirmed by fundus photography and FFA examination that the fluorescein leakage of photocoagulation peaked on the 21st day after photocoagulation, and histopathological examination was performed at the same time. […] A large number of neovascular vessels were seen, and red blood cells were visible in the lumen. Microscopically, capillary cells in the choroidal melanocytes were cohesively altered and endothelial cells aggregated.
Rats that were successfully modeled were randomly divided into groups of 5 rats each. They were labeled as negative control group, mPEG-SC-HM-1 treatment group, mPEG2-NHS-HM-1 treatment group, mPEG-ALD-HM-1 treatment group and mPEG-bALD-HM-1 treatment group, respectively. Saline, mPEG-HM-1 (see Table 53 for dosing) was administered intravitreally, once daily for 1 week. FFA examinations were performed 3 days, 7 days, 14 days, and 28 days after administration of the modified peptides.

[5] = system: Ovarian cancer tumor cells; assay: MTT proliferation inhibition, ovarian cancer cells; assay type: cell-based, human; parameters: concentration or dose not given beside the values; conditions: 48 h
Procedure, shortened: as §1

[6] = system: Brain tumor cells; assay: MTT proliferation inhibition, brain tumor cells; assay type: cell-based, human; parameters: concentration or dose not given beside the values; conditions: 48 h
Procedure, shortened: as §1

[7] = system: Esophageal cancer tumor cells; assay: MTT proliferation inhibition, esophageal cancer cells; assay type: cell-based, human; parameters: concentration or dose not given beside the values; conditions: 48 h
Procedure, shortened: as §1

[8] = system: Thyroid cancer tumor cells; assay: MTT proliferation inhibition, thyroid cancer cells; assay type: cell-based, human; parameters: concentration or dose not given beside the values; conditions: 48 h
Procedure, shortened: as §1

[9] = system: sarcoma tumor cells; assay: MTT proliferation inhibition, sarcoma cells; assay type: cell-based, human; parameters: concentration or dose not given beside the values; conditions: 48 h
Procedure, shortened: as §1

[10] = system: collagen induced arthritis (CIA) in DBA/1 mice; assay: Collagen-induced mouse arthritis (CIA) model; assay type: in vivo; conditions: CIA DBA/1 mice; for Clinical score: maximum score 16
[11] = system: Melanoma tumor cells; assay: MTT proliferation inhibition, melanoma cells; assay type: cell-based, human; parameters: concentration or dose not given beside the values; conditions: 48 h
Procedure, shortened: as §1

[12] = system: Head and neck cancer tumor cells; assay: MTT proliferation inhibition, head and neck cancer cells; assay type: cell-based, human; parameters: concentration or dose not given beside the values; conditions: 48 h
Procedure, shortened: as §1

[13] = system: Uterine cancer tumor cells; assay: MTT proliferation inhibition, uterine cancer cells; assay type: cell-based, human; parameters: concentration or dose not given beside the values; conditions: 48 h
Procedure, shortened: as §1

[14] = 20 mg/kg subcutaneous once every three days
[15] = 20 mg/kg subcutaneous from day 30 of modeling
[16] = 80 mg/kg subcutaneous once every three days
[17] = 80 mg/kg subcutaneous from day 30 of modeling
[18] = 10 mg/kg subcutaneous once every three days
[19] = 10 mg/kg subcutaneous from day 30 of modeling
[20] = 40 mg/kg subcutaneous once every three days
[21] = 40 mg/kg subcutaneous from day 30 of modeling

mPEG-SC10k-Arg-Gly-Ala-Asp-Arg-Ala-Gly-Gly-Gly-Gly-Arg-Gly-Asp ({mPEG‑SC 10 kDa}-RGADRAGGGGRGD) [mPEG-SC10k-HM-1]
rate of growth inhibition [1]: 52.88 ± 13.66%
Joint swelling [2, 14]: 0.70 ± 0.18 mm
Left and right paw swelling [2, 14]: 3.81 ± 0.71 mm
Clinical score [2, 14]: 5.52 ± 1.07
in vivo immune protection effect on adjuvant arthritis model (in words) ([2]; AA rats, subcutaneous, once every three days, vs model group): has the most significant effect
rate of growth inhibition [3]: 60.53 ± 17.16%
incidence of CNV ([4]; BN rats, 28 days after administration, intravitreal once daily for 1 week): 38.81%
CNV Incidence rate ([4]; Day 3 after administration, 50 μg intravitreally once daily for 1 week (Table 53)): 49.66%
leakage Spots # ([4]; Day 3 after administration, 50 μg intravitreally once daily for 1 week (Table 53), total spots 290-296 by table): 147
CNV Incidence rate ([4]; Day 7, 50 μg intravitreally once daily for 1 week (Table 53)): 45.74%
leakage Spots # ([4]; Day 7, 50 μg intravitreally once daily for 1 week (Table 53), total spots 182-188 by table): 86
CNV Incidence rate ([4]; Day 14, 50 μg intravitreally once daily for 1 week (Table 53)): 42.96%
leakage Spots # ([4]; Day 14, 50 μg intravitreally once daily for 1 week (Table 53), total spots 132-138 by table): 58
CNV Incidence rate ([4]; Day 28, 50 μg intravitreally once daily for 1 week (Table 53)): 38.81%
leakage Spots # ([4]; Day 28, 50 μg intravitreally once daily for 1 week (Table 53), total spots 67-71 by table): 26
rate of growth inhibition [5]: 65.89 ± 23.37%
rate of growth inhibition [6]: 50.21 ± 12.19%
rate of growth inhibition [7]: 52.18 ± 10.25%
rate of growth inhibition [8]: 46.23 ± 13.05%
rate of growth inhibition [9]: 45.49 ± 11.89%
Joint swelling [10, 15]: 0.79 ± 0.13 mm
Left and right paw swelling [10, 15]: 0.77 ± 0.12 mm
Clinical score [10, 15]: 9.06 ± 1.24
rate of growth inhibition [11]: 70.62 ± 20.17%
rate of growth inhibition [12]: 45.61 ± 11.12%
rate of growth inhibition [13]: 65.29 ± 19.06%

mPEG-SC40k-Arg-Gly-Ala-Asp-Arg-Ala-Gly-Gly-Gly-Gly-Arg-Gly-Asp ({mPEG‑SC 40 kDa}-RGADRAGGGGRGD) [mPEG-SC40k-HM-1]
rate of growth inhibition [1]: 53.36 ± 15.09%
Joint swelling [2, 16]: 0.71 ± 0.11 mm
Left and right paw swelling [2, 16]: 3.83 ± 0.62 mm
Clinical score [2, 16]: 5.88 ± 1.08
rate of growth inhibition [3]: 60.45 ± 17.25%
CNV Incidence rate ([4]; Day 3 after administration, 200 μg intravitreally once daily for 1 week (Table 53)): 50.68%
leakage Spots # ([4]; Day 3 after administration, 200 μg intravitreally once daily for 1 week (Table 53), total spots 290-296 by table): 150
CNV Incidence rate ([4]; Day 7, 200 μg intravitreally once daily for 1 week (Table 53)): 50.00%
leakage Spots # ([4]; Day 7, 200 μg intravitreally once daily for 1 week (Table 53), total spots 182-188 by table): 94
CNV Incidence rate ([4]; Day 14, 200 μg intravitreally once daily for 1 week (Table 53)): 44.44%
leakage Spots # ([4]; Day 14, 200 μg intravitreally once daily for 1 week (Table 53), total spots 132-138 by table): 60
CNV Incidence rate ([4]; Day 28, 200 μg intravitreally once daily for 1 week (Table 53)): 43.28%
leakage Spots # ([4]; Day 28, 200 μg intravitreally once daily for 1 week (Table 53), total spots 67-71 by table): 29
rate of growth inhibition [5]: 68.46 ± 13.19%
rate of growth inhibition [6]: 52.89 ± 15.41%
rate of growth inhibition [7]: 52.12 ± 12.35%
rate of growth inhibition [8]: 50.13 ± 14.21%
rate of growth inhibition [9]: 45.26 ± 11.61%
Joint swelling [10, 17]: 0.80 ± 0.16 mm
Left and right paw swelling [10, 17]: 0.80 ± 0.16 mm
Clinical score [10, 17]: 9.09 ± 1.33
rate of growth inhibition [11]: 68.73 ± 21.25%
rate of growth inhibition [12]: 43.22 ± 10.25%
rate of growth inhibition [13]: 70.27 ± 21.37%

mPEG-bALD5k-Arg-Gly-Ala-Asp-Arg-Ala-Gly-Gly-Gly-Gly-Arg-Gly-Asp ({mPEG‑bALD 5 kDa}-RGADRAGGGGRGD) [mPEG-bALD5k-HM-1]
rate of growth inhibition [1]: 40.29 ± 12.16%
Joint swelling [2, 18]: 0.73 ± 0.18 mm
Left and right paw swelling [2, 18]: 3.94 ± 0.65 mm
Clinical score [2, 18]: 5.92 ± 1.11
rate of growth inhibition [3]: 53.14 ± 10.34%
CNV Incidence rate ([4]; Day 3 after administration, 25 μg intravitreally once daily for 1 week (Table 53)): 55.29%
leakage Spots # ([4]; Day 3 after administration, 25 μg intravitreally once daily for 1 week (Table 53), total spots 290-296 by table): 162
CNV Incidence rate ([4]; Day 7, 25 μg intravitreally once daily for 1 week (Table 53)): 52.43%
leakage Spots # ([4]; Day 7, 25 μg intravitreally once daily for 1 week (Table 53), total spots 182-188 by table): 97
CNV Incidence rate ([4]; Day 14, 25 μg intravitreally once daily for 1 week (Table 53)): 47.10%
leakage Spots # ([4]; Day 14, 25 μg intravitreally once daily for 1 week (Table 53), total spots 132-138 by table): 65
CNV Incidence rate ([4]; Day 28, 25 μg intravitreally once daily for 1 week (Table 53)): 46.38%
leakage Spots # ([4]; Day 28, 25 μg intravitreally once daily for 1 week (Table 53), total spots 67-71 by table): 32
rate of growth inhibition [5]: 66.76 ± 18.59%
rate of growth inhibition [6]: 45.11 ± 12.09%
rate of growth inhibition [7]: 45.03 ± 11.46%
rate of growth inhibition [8]: 42.19 ± 10.35%
rate of growth inhibition [9]: 41.42 ± 10.03%
Joint swelling [10, 19]: 0.73 ± 0.15 mm
Left and right paw swelling [10, 19]: 0.74 ± 0.13 mm
Clinical score [10, 19]: 8.98 ± 1.25
rate of growth inhibition [11]: 65.62 ± 20.35%
rate of growth inhibition [12]: 39.92 ± 11.33%
rate of growth inhibition [13]: 65.46 ± 18.52%

mPEG-bALD20k-Arg-Gly-Ala-Asp-Arg-Ala-Gly-Gly-Gly-Gly-Arg-Gly-Asp ({mPEG‑bALD 20 kDa}-RGADRAGGGGRGD) [mPEG-bALD20k-HM-1]
rate of growth inhibition [1]: 50.31 ± 14.00%
Joint swelling [2, 20]: 0.77 ± 0.23 mm
Left and right paw swelling [2, 20]: 3.78 ± 0.63 mm
Clinical score [2, 20]: 5.68 ± 1.10
rate of growth inhibition [3]: 69.54 ± 18.37%
CNV Incidence rate ([4]; Day 3 after administration, 100 μg intravitreally once daily for 1 week (Table 53)): 51.54%
leakage Spots # ([4]; Day 3 after administration, 100 μg intravitreally once daily for 1 week (Table 53), total spots 290-296 by table): 151
CNV Incidence rate ([4]; Day 7, 100 μg intravitreally once daily for 1 week (Table 53)): 49.19%
leakage Spots # ([4]; Day 7, 100 μg intravitreally once daily for 1 week (Table 53), total spots 182-188 by table): 91
CNV Incidence rate ([4]; Day 14, 100 μg intravitreally once daily for 1 week (Table 53)): 45.65%
leakage Spots # ([4]; Day 14, 100 μg intravitreally once daily for 1 week (Table 53), total spots 132-138 by table): 63
CNV Incidence rate ([4]; Day 28, 100 μg intravitreally once daily for 1 week (Table 53)): 40.58%
leakage Spots # ([4]; Day 28, 100 μg intravitreally once daily for 1 week (Table 53), total spots 67-71 by table): 28
rate of growth inhibition [5]: 75.65 ± 20.09%
rate of growth inhibition [6]: 54.77 ± 13.43%
rate of growth inhibition [7]: 60.56 ± 14.72%
rate of growth inhibition [8]: 49.38 ± 13.20%
rate of growth inhibition [9]: 50.91 ± 10.64%
Joint swelling [10, 21]: 0.73 ± 0.15 mm
Left and right paw swelling [10, 21]: 0.75 ± 0.11 mm
Clinical score [10, 21]: 8.67 ± 1.32
rate of growth inhibition [11]: 80.75 ± 22.94%
rate of growth inhibition [12]: 45.13 ± 12.38%
rate of growth inhibition [13]: 75.97 ± 22.67%
